{"source": "paper PMC5617771", "about": "(Bioorganic & medicinal chemistry, 2017)", "key": {"HIV-1 LAI": {"test_system": "HIV-1 LAI", "experiment": "Antiviral activity in MT-2 cells exposed to HIV-1 LAI", "type": "cell-based", "conditions": "for fold improvement in antiviral assay with respect to 3b: relative to 3b"}, "HIV-1 protease": {"molecular_target": "HIV-1 protease (Human immunodeficiency virus type 1 group M subtype B, UniProt P04585)", "experiment": "HIV-1 protease enzyme inhibition", "type": "biochemical"}}}
{"molecule": "COc1ccc(S(=O)(=O)N(CC(C)C)C[C@@H](O)[C@H](Cc2ccccc2)NC(=O)c2cccc(C(=O)N(C)Cc3coc(C)n3)c2)cc1", "note": "[Inhibitor 3c, N^1-((2S,3R)-3-hydroxy-4-((N-isobutyl-4-methoxyphenyl)sulfonamido)-1-phenylbutan-2-yl)-N^3-methyl-N^3-((2-methyloxazol-4-yl)methyl)isophthalamide]", "values": [{"measurement": "fold improvement in antiviral assay with respect to 3b", "setting": "HIV-1 LAI", "value": "over 20 fold"}]}
{"molecule": "COc1ccc(S(=O)(=O)N(CC(C)C)C[C@@H](O)[C@H](Cc2ccccc2)NC(=O)c2cccc(C(=O)N(C)Cc3csc(C)n3)c2)cc1", "note": "[Inhibitor 3d, N^1-((2S,3R)-3-hydroxy-4-((N-isobutyl-4-methoxyphenyl)sulfonamido)-1-phenylbutan-2-yl)-N^3-methyl-N^3-((2-methylthiazol-4-yl)methyl)isophthalamide]", "values": [{"measurement": "fold improvement in antiviral assay with respect to 3b", "setting": "HIV-1 LAI", "value": "over 20 fold"}, {"measurement": "fold enhanced protease inhibitory activity over 3c", "setting": "HIV-1 protease; relative to 3c", "value": 5, "unit": "fold"}]}
{"molecule": "COc1ccc(S(=O)(=O)N(CC(C)C)C[C@@H](O)[C@H](Cc2ccccc2)NC(=O)c2cc(O)cc(C(=O)N(C)Cc3nc(C)oc3C)c2)cc1", "note": "[Inhibitor 3f, N^1-((2,5-dimethyloxazol-4-yl)methyl)-5-hydroxy-N^3-((2S,3R)-3-hydroxy-4-((N-isobutyl-4-methoxyphenyl)sulfonamido)-1-phenylbutan-2-yl)-N^1-methylisophthalamide]", "values": [{"measurement": "fold protease inhibitory potency over methylamino analogue 3e", "setting": "HIV-1 protease; relative to 3e", "value": 10, "unit": "fold"}]}
{"molecule": "COc1ccc(S(=O)(=O)N(CC(C)C)C[C@@H](O)[C@H](Cc2ccccc2)NC(=O)c2cccc(C(=O)N3CCC[C@@H]3c3nc(C)cs3)c2)cc1", "note": "[Inhibitor 4b, N-((2S,3R)-3-hydroxy-4-((N-isobutyl-4-methoxyphenyl)sulfonamido)-1-phenylbutan-2-yl)-3-((R)-2-(4-methylthiazol-2-yl)pyrrolidine-1-carbonyl)benzamide]", "values": [{"measurement": "fold improved potency over (S) counterpart 4a", "setting": "HIV-1 protease; relative to 4a", "value": "over 100 fold"}]}
{"molecule": "COc1ccc(S(=O)(=O)N(CC(C)C)C[C@@H](O)[C@H](Cc2ccccc2)NC(=O)c2cccc(C(=O)N3CCC[C@@H]3c3nc(C)co3)c2)cc1", "note": "[Inhibitor 4h, N-((2S,3R)-3-hydroxy-4-((N-isobutyl-4-methoxyphenyl)sulfonamido)-1-phenylbutan-2-yl)-3-((R)-2-(4-methyloxazol-2-yl)pyrrolidine-1-carbonyl)benzamide]", "values": [{"measurement": "fold improved antiviral profile with respect to 4g", "setting": "HIV-1 LAI; relative to 4g", "value": 10, "unit": "fold"}]}
